Columns and labels:
[1] = system: late watergrass; test: Test Example 1: herbicidal activity, application before weed generation under submerged conditions (Table 16, symbol A); format: in vivo, late watergrass (Echinochloa oryzicola)
Method in brief: (§1)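 Submerged Wagner pots (alluvial soil, 4 cm water) sown with weed seeds and planted with 2.5-leaf rice seedlings; emulsifiable concentrate diluted in water applied to water surface on sowing day. Held in greenhouse at 25-30 °C; injury scored 0-5 by herbicidal rate after three weeks.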

[2] = system: Japanese bulrush; test: Test Example 1: herbicidal activity, application before weed generation under submerged conditions (Table 16, symbol B); format: in vivo, Japanese bulrush (Schoenoplectus juncoides)
Method in brief: as §1

[3] = system: oval-leafed pondweed; test: Test Example 1: herbicidal activity, application before weed generation under submerged conditions (Table 16, symbol C); format: in vivo, oval-leafed pondweed (Monochoria vaginalis)
Method in brief: as §1

[4] = system: barnyard grass; test: Test Example 3: herbicidal effect by foliage application, Wagner pot (Table 18, symbol H); format: in vivo, barnyard grass (Echinochloa crus-galli); settings: 320 g/ha
Method in brief: (§2)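 Plants were sown in alluvial soil held under 0.1–0.5 cm standing water and grown 14 days in a greenhouse at 25–30 °C. An emulsifiable formulation, water-diluted to the set dose, was then sprayed onto the foliage, and effects were scored three weeks later using previously defined criteria.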

[5] = system: Chinese sprangletop; test: Test Example 3: herbicidal effect by foliage application, Wagner pot (Table 18, symbol D); format: in vivo, chinese sprangletop (Leptochloa chinensis); settings: 320 g/ha
Method in brief: as §2

[6] = system: rice flat sedge; test: Test Example 3: herbicidal effect by foliage application, Wagner pot (Table 18, symbol E); format: in vivo, rice flat sedge (Cyperus iria); settings: 320 g/ha
Method in brief: as §2

[7] = system: southern crabgrass; test: Test Example 4: herbicidal effect by soil treatment (Table 19, symbol F); format: in vivo, southern crabgrass (Digitaria ciliaris); settings: amount of applied herbicide 320 g/ha
Method in brief: (§3)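 Emulsion of test compound, water-diluted to predetermined amount, sprayed on soil after sowing (seed depth ~1.5 cm, sterilized diluvial soil). Greenhouse, 25–30° C. Effect graded at three weeks post-spray.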

[8] = system: green foxtail; test: Test Example 4: herbicidal effect by soil treatment (Table 19, symbol G); format: in vivo, green foxtail (Setaria viridis); settings: amount of applied herbicide 320 g/ha
Method in brief: as §3

[9] = system: barnyard grass; test: Test Example 4: herbicidal effect by soil treatment (Table 19, symbol H); format: in vivo, barnyard grass (Echinochloa crus-galli); settings: amount of applied herbicide 320 g/ha
Method in brief: as §3

[10] = system: wild oat; test: Test Example 4: herbicidal effect by soil treatment (Table 19, symbol I); format: in vivo, wild oat (Avena fatua); settings: amount of applied herbicide 320 g/ha
Method in brief: as §3

[11] = system: blackgrass; test: Test Example 4: herbicidal effect by soil treatment (Table 19, symbol J); format: in vivo, blackgrass (Alopecurus myosuroides); settings: amount of applied herbicide 320 g/ha
Method in brief: as §3

[12] = system: Italian ryegrass; test: Test Example 4: herbicidal effect by soil treatment (Table 19, symbol K); format: in vivo, Italian ryegrass (Lolium multiflorum); settings: amount of applied herbicide 320 g/ha
Method in brief: as §3

[13] = system: windgrass; test: Test Example 4: herbicidal effect by soil treatment (Table 19, symbol L); format: in vivo, windgrass (Apera spica-venti); settings: amount of applied herbicide 320 g/ha
Method in brief: as §3

[14] = system: velvetleaf; test: Test Example 4: herbicidal effect by soil treatment (Table 19, symbol M); format: in vivo, velvetleaf (Abutilon theophrasti); settings: amount of applied herbicide 320 g/ha
Method in brief: as §3

[15] = system: redroot pigweed; test: Test Example 4: herbicidal effect by soil treatment (Table 19, symbol N); format: in vivo, redroot pigweed (Amaranthus retroflexus); settings: amount of applied herbicide 320 g/ha
Method in brief: as §3

[16] = system: lambsquarters; test: Test Example 4: herbicidal effect by soil treatment (Table 19, symbol O); format: in vivo, lambsquarters (Chenopodium album); settings: amount of applied herbicide 320 g/ha
Method in brief: as §3

[17] = system: chickweed; test: Test Example 4: herbicidal effect by soil treatment (Table 19, symbol P); format: in vivo, common chickweed (Stellaria media); settings: amount of applied herbicide 320 g/ha
Method in brief: as §3

[18] = system: false cleavers; test: Test Example 4: herbicidal effect by soil treatment (Table 19, symbol Q); format: in vivo, false cleavers (Galium spurium); settings: amount of applied herbicide 320 g/ha
Method in brief: as §3

[19] = system: persian speedwell; test: Test Example 4: herbicidal effect by soil treatment (Table 19, symbol R); format: in vivo, Persian speedwell (Veronica persica); settings: amount of applied herbicide 320 g/ha
Method in brief: as §3

[20] = system: southern crabgrass; test: Test Example 5: herbicidal effect by foliage application, plastic box (Table 20, symbol F); format: in vivo, southern crabgrass (Digitaria ciliaris); settings: foliage application, 320 g/ha, three weeks after application
Method in brief: (§4)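 Post-emergence foliar test in sterilized diluvial soil. Compound applied as water-diluted emulsion at a predetermined rate to 14-day-old plants; evaluation at three weeks.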

[21] = system: green foxtail; test: Test Example 5: herbicidal effect by foliage application, plastic box (Table 20, symbol G); format: in vivo, green foxtail (Setaria viridis); settings: foliage application, 320 g/ha, three weeks after application
Method in brief: as §4

[22] = system: barnyard grass; test: Test Example 5: herbicidal effect by foliage application, plastic box (Table 20, symbol H); format: in vivo, barnyard grass (Echinochloa crus-galli); settings: foliage application, 320 g/ha, three weeks after application
Method in brief: as §4

[23] = system: wild oat; test: Test Example 5: herbicidal effect by foliage application, plastic box (Table 20, symbol I); format: in vivo, wild oat (Avena fatua); settings: foliage application, 320 g/ha, three weeks after application
Method in brief: as §4

[24] = system: blackgrass; test: Test Example 5: herbicidal effect by foliage application, plastic box (Table 20, symbol J); format: in vivo, blackgrass (Alopecurus myosuroides); settings: foliage application, 320 g/ha, three weeks after application
Method in brief: as §4

[25] = system: Italian ryegrass; test: Test Example 5: herbicidal effect by foliage application, plastic box (Table 20, symbol K); format: in vivo, Italian ryegrass (Lolium multiflorum); settings: foliage application, 320 g/ha, three weeks after application
Method in brief: as §4

[26] = system: velvetleaf; test: Test Example 5: herbicidal effect by foliage application, plastic box (Table 20, symbol M); format: in vivo, velvetleaf (Abutilon theophrasti); settings: foliage application, 320 g/ha, three weeks after application
Method in brief: as §4

[27] = system: redroot pigweed; test: Test Example 5: herbicidal effect by foliage application, plastic box (Table 20, symbol N); format: in vivo, redroot pigweed (Amaranthus retroflexus); settings: foliage application, 320 g/ha, three weeks after application
Method in brief: as §4

[28] = system: lambsquarters; test: Test Example 5: herbicidal effect by foliage application, plastic box (Table 20, symbol O); format: in vivo, lambsquarters (Chenopodium album); settings: foliage application, 320 g/ha, three weeks after application
Method in brief: as §4

[29] = system: chickweed; test: Test Example 5: herbicidal effect by foliage application, plastic box (Table 20, symbol P); format: in vivo, common chickweed (Stellaria media); settings: foliage application, 320 g/ha, three weeks after application
Method in brief: as §4

[30] = system: false cleavers; test: Test Example 5: herbicidal effect by foliage application, plastic box (Table 20, symbol Q); format: in vivo, false cleavers (Galium spurium); settings: foliage application, 320 g/ha, three weeks after application
Method in brief: as §4

[31] = system: persian speedwell; test: Test Example 5: herbicidal effect by foliage application, plastic box (Table 20, symbol R); format: in vivo, Persian speedwell (Veronica persica); settings: foliage application, 320 g/ha, three weeks after application
Method in brief: as §4

[32] = system: windgrass; test: Test Example 5: herbicidal effect by foliage application, plastic box (Table 20, symbol L); format: in vivo, windgrass (Apera spica-venti); settings: foliage application, 320 g/ha, three weeks after application
Method in brief: as §4

[33] = amount of applied herbicide 320 g/ha

CCCC(=O)Oc1c(C)nn(C)c(=O)c1-c1c(-c2ccc(C(C)=O)cc2)sc2ccccc12 [1-042]
Herbicidal effect on A: late watergrass (grade 0-5) ([1]; 320 g/ha applied herbicide): 3 (Herbicidal rate of 40% or more and less than 70%) | Herbicidal effect on B: Japanese bulrush (grade 0-5) ([2]; 320 g/ha applied herbicide): 4 (Herbicidal rate of 70% or more and less than 90%) | Herbicidal effect on C: oval-leafed pondweed (grade 0-5) ([3]; 320 g/ha applied herbicide): 3 (Herbicidal rate of 40% or more and less than 70%) | herbicidal effect on H (barnyard grass), rating 0-5 [4]: 3 (Herbicidal rate of 40% or more and less than 70%) | herbicidal effect on D (Chinese sprangletop), rating 0-5 [5]: 0 (Herbicidal rate of 5% or less (almost no effect)) | herbicidal effect on E (rice flat sedge), rating 0-5 [6]: 5 (Herbicidal rate of 90% or more (almost completely withered)) | herbicidal effect rating, F: southern crabgrass [7]: 2 (Herbicidal rate of 20% or more and less than 40%) | herbicidal effect rating, G: green foxtail [8]: 3 (Herbicidal rate of 40% or more and less than 70%) | herbicidal effect rating, H: barnyard grass [9]: 0 (Herbicidal rate of 5% or less (almost no effect)) | herbicidal effect rating, I: wild oat [10]: 0 (Herbicidal rate of 5% or less (almost no effect)) | herbicidal effect rating, J: blackgrass [11]: 0 (Herbicidal rate of 5% or less (almost no effect)) | herbicidal effect rating, K: Italian ryegrass [12]: 3 (Herbicidal rate of 40% or more and less than 70%) | herbicidal effect rating, L: windgrass [13]: 0 (Herbicidal rate of 5% or less (almost no effect)) | herbicidal effect rating, M: velvetleaf [14]: 3 (Herbicidal rate of 40% or more and less than 70%) | herbicidal effect rating, N: redroot pigweed [15]: 5 (Herbicidal rate of 90% or more (almost completely withered)) | herbicidal effect rating, O: lambsquarters [16]: 3 (Herbicidal rate of 40% or more and less than 70%) | herbicidal effect rating, P: chickweed [17]: 4 (Herbicidal rate of 70% or more and less than 90%) | herbicidal effect rating, Q: false cleavers [18]: 0 (Herbicidal rate of 5% or less (almost no effect)) | herbicidal effect rating, R: persian speedwell [19]: 5 (Herbicidal rate of 90% or more (almost completely withered)) | herbicidal effect grade, F: southern crabgrass [20]: 3 (Herbicidal rate of 40% or more and less than 70%) | herbicidal effect grade, G: green foxtail [21]: 3 (Herbicidal rate of 40% or more and less than 70%) | herbicidal effect grade, H: barnyard grass [22]: 3 (Herbicidal rate of 40% or more and less than 70%) | herbicidal effect grade, I: wild oat [23]: 0 (Herbicidal rate of 5% or less (almost no effect)) | herbicidal effect grade, J: blackgrass [24]: 0 (Herbicidal rate of 5% or less (almost no effect)) | herbicidal effect grade, K: Italian ryegrass [25]: 4 (Herbicidal rate of 70% or more and less than 90%) | herbicidal effect grade, M: velvetleaf [26]: 5 (Herbicidal rate of 90% or more (almost completely withered)) | herbicidal effect grade, N: redroot pigweed [27]: 4 (Herbicidal rate of 70% or more and less than 90%) | herbicidal effect grade, O: lambsquarters [28]: 3 (Herbicidal rate of 40% or more and less than 70%) | herbicidal effect grade, P: chickweed [29]: 5 (Herbicidal rate of 90% or more (almost completely withered)) | herbicidal effect grade, Q: false cleavers [30]: 2 (Herbicidal rate of 20% or more and less than 40%) | herbicidal effect grade, R: persian speedwell [31]: 5 (Herbicidal rate of 90% or more (almost completely withered))

CCCC(=O)Oc1c(C)nn(C)c(=O)c1-c1c(-c2ccc3c(c2)OCCO3)sc2cc(C)ccc12 [3-060]
Herbicidal effect, A: late watergrass [1, 33]: 1 (Herbicidal rate of 5% or more and less than 20%) | Herbicidal effect, B: Japanese bulrush [2, 33]: 2 (Herbicidal rate of 20% or more and less than 40%) | Herbicidal effect, C: oval-leafed pondweed [3, 33]: 0 (Herbicidal rate of 5% or less (almost no effect)) | herbicidal effect on barnyard grass (H) [4]: 3 (Herbicidal rate of 40% or more and less than 70%) | herbicidal effect on Chinese sprangletop (D) [5]: 4 (Herbicidal rate of 70% or more and less than 90%) | herbicidal effect on rice flat sedge (E) [6]: 3 (Herbicidal rate of 40% or more and less than 70%) | F: southern crabgrass, herbicidal effect grade [7]: 0 (Herbicidal rate of 5% or less (almost no effect)) | G: green foxtail, herbicidal effect grade [8]: 0 (Herbicidal rate of 5% or less (almost no effect)) | H: barnyard grass, herbicidal effect grade [9]: 0 (Herbicidal rate of 5% or less (almost no effect)) | I: wild oat, herbicidal effect grade [10]: 0 (Herbicidal rate of 5% or less (almost no effect)) | J: blackgrass, herbicidal effect grade [11]: 0 (Herbicidal rate of 5% or less (almost no effect)) | K: Italian ryegrass, herbicidal effect grade [12]: 0 (Herbicidal rate of 5% or less (almost no effect)) | L: windgrass, herbicidal effect grade [13]: 0 (Herbicidal rate of 5% or less (almost no effect)) | M: velvetleaf, herbicidal effect grade [14]: 0 (Herbicidal rate of 5% or less (almost no effect)) | N: redroot pigweed, herbicidal effect grade [15]: 0 (Herbicidal rate of 5% or less (almost no effect)) | P: chickweed, herbicidal effect grade [17]: 0 (Herbicidal rate of 5% or less (almost no effect)) | Q: false cleavers, herbicidal effect grade [18]: 0 (Herbicidal rate of 5% or less (almost no effect)) | R: persian speedwell, herbicidal effect grade [19]: 3 (Herbicidal rate of 40% or more and less than 70%) | F: southern crabgrass, herbicidal effect grade [20]: 0 (Herbicidal rate of 5% or less (almost no effect)) | G: green foxtail, herbicidal effect grade [21]: 0 (Herbicidal rate of 5% or less (almost no effect)) | H: barnyard grass, herbicidal effect grade [22]: 0 (Herbicidal rate of 5% or less (almost no effect)) | I: wild oat, herbicidal effect grade [23]: 0 (Herbicidal rate of 5% or less (almost no effect)) | J: blackgrass, herbicidal effect grade [24]: 3 (Herbicidal rate of 40% or more and less than 70%) | K: Italian ryegrass, herbicidal effect grade [25]: 0 (Herbicidal rate of 5% or less (almost no effect)) | L: windgrass, herbicidal effect grade [32]: 3 (Herbicidal rate of 40% or more and less than 70%) | M: velvetleaf, herbicidal effect grade [26]: 0 (Herbicidal rate of 5% or less (almost no effect)) | N: redroot pigweed, herbicidal effect grade [27]: 0 (Herbicidal rate of 5% or less (almost no effect)) | O: lambsquarters, herbicidal effect grade [28]: 0 (Herbicidal rate of 5% or less (almost no effect)) | P: chickweed, herbicidal effect grade [29]: 5 (Herbicidal rate of 90% or more (almost completely withered)) | Q: false cleavers, herbicidal effect grade [30]: 0 (Herbicidal rate of 5% or less (almost no effect)) | R: persian speedwell, herbicidal effect grade [31]: 5 (Herbicidal rate of 90% or more (almost completely withered))

— patent US20230085307A1, “PYRIDAZINONE COMPOUND AND HERBICIDE” (NISSAN CHEMICAL CORPORATION, priority 2019, published 2023)
